Data as given in ChEMBL document CHEMBL1201862, “PubChem BioAssay data set” (2004).
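Cultured in 96-well plates, cells were exposed to test compound for 48 hours across five concentrations. GI50: concentration for 50% inhibition of growth.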 The source made the active and inactive calls. No stated cut-off is given here; in the data, active = GI50 up to about 1.1 µM and inactive = higher.

Tests used:
Experiment in all cases: NCI-60 cell line screen, 48 h
[1] = test system: EKVX
[2] = test system: SF-295
[3] = test system: MDA-N
[4] = test system: NCI-H460
[5] = test system: HT-29
[6] = test system: COLO 205
[7] = test system: SF-268
[8] = test system: OVCAR-5
[9] = test system: HCC 2998
[10] = test system: TK-10
[11] = test system: DU-145
[12] = test system: SK-MEL-28
[13] = test system: BT-549
[14] = test system: Hs-578T
[15] = test system: SK-MEL-5
[16] = test system: OVCAR-3
[17] = test system: HCT-15
[18] = test system: SW-620
[19] = test system: MDA-MB-231
[20] = test system: SN12C
[21] = test system: SF-539
[22] = test system: NCI-H522
[23] = test system: OVCAR-4
[24] = test system: NCI/ADR-RES
[25] = test system: SK-OV-3
[26] = test system: IGROV-1
[27] = test system: HOP-62
[28] = test system: A549
[29] = test system: LOX IMVI
[30] = test system: ACHN
[31] = test system: M14
[32] = test system: UO-31
[33] = test system: U-251
[34] = test system: CAKI-1
[35] = test system: HOP-92
[36] = test system: UACC-257
[37] = test system: K562
[38] = test system: 786-0
[39] = test system: UACC-62
[40] = test system: NCI-H23
[41] = test system: MCF7
[42] = test system: CCRF-CEM
[43] = test system: T47D
[44] = test system: MOLT-4
[45] = test system: SNB-75
[46] = test system: KM12
[47] = test system: OVCAR-8
[48] = test system: PC-3
[49] = test system: HCT-116
[50] = test system: Malme-3M
[51] = test system: SK-MEL-2
[52] = test system: NCI-H226
[53] = test system: RPMI-8226
[54] = test system: MDA-MB-435
[55] = test system: SNB-19

## COc1ccc2c(c1)-c1[nH]c3ccccc3c1CC2
[1]
  GI50: 10.1 µM (inactive)
[2]
  GI50: 14.2 µM (inactive)
[3]
  GI50: 16 µM (inactive)
[4]
  GI50: 15.6 µM (inactive)
[5]
  GI50: 11 µM (inactive)
[6]
  GI50: 16.6 µM (inactive)
[7]
  GI50: 14.9 µM (inactive)
[8]
  GI50: 15.7 µM (inactive)
[9]
  GI50: 10.2 µM (inactive)
[10]
  GI50: 16.1 µM (inactive)
[11]
  GI50: 17.9 µM (inactive)
[12]
  GI50: 16.8 µM (inactive)
[13]
  GI50: 17.2 µM (inactive)
[14]
  GI50: 15.4 µM (inactive)
[15]
  GI50: 13.2 µM (inactive)
[16]
  GI50: 18.2 µM (inactive)
[17]
  GI50: 14.7 µM
[18]
  GI50: 16.8 µM (inactive)
[19]
  GI50: 16.8 µM (inactive)
[20]
  GI50: 14.4 µM (inactive)
[21]
  GI50: 17.4 µM (inactive)
[22]
  GI50: 6.31 µM (inactive)
[23]
  GI50: 17.1 µM (inactive)
[24]
  GI50: 11.9 µM (inactive)
[25]
  GI50: 18.1 µM (inactive)
[26]
  GI50: 3.9 µM (inactive)
[27]
  GI50: 16.8 µM (inactive)
[28]
  GI50: 15.2 µM (inactive)
[29]
  GI50: 18.2 µM (inactive)
[30]
  GI50: 18.1 µM (inactive)
[31]
  GI50: 17.4 µM (inactive)
[32]
  GI50: 15.5 µM (inactive)
[33]
  GI50: 16.6 µM (inactive)
[34]
  GI50: 15.4 µM (inactive)
[35]
  GI50: 17.1 µM (inactive)
[36]
  GI50: 16.3 µM (inactive)
[37]
  GI50: 21.6 µM (inactive)
[38]
  GI50: 16.4 µM (inactive)
[39]
  GI50: 15.6 µM (inactive)
[40]
  GI50: 13.6 µM (inactive)
[41]
  GI50: 14.9 µM (inactive)
[42]
  GI50: 18 µM (inactive)
[43]
  GI50: 13.5 µM (inactive)
[44]
  GI50: 12.1 µM (inactive)
[45]
  GI50: 15.2 µM (inactive)
[46]
  GI50: 13.6 µM (inactive)
[47]
  GI50: 12.6 µM (inactive)
[48]
  GI50: 14.9 µM (inactive)
[49]
  GI50: 16.9 µM (inactive)
[50]
  GI50: 12.4 µM (inactive)
[51]
  GI50: 15.5 µM (inactive)
[52]
  GI50: 13.3 µM (inactive)
[53]
  GI50: 20.4 µM (inactive)
[54]
  GI50: 16.6 µM (inactive)
[55]
  GI50: 15.7 µM (inactive)
